In US20260015328A1, “ATM KINASE INHIBITORS” (Eberhard Karls Universität Tübingen, priority 2023, published 2026):

These compounds were tested against isolated ATM kinase (Homo sapiens (Human), UniProt Q13315) (assay: FRET-based ATM activity assay at Reaction Biology Corp. (IC50^I)). Details: Table 13; read-out: IC50 [nM], IC50^I.
Assay type: biochemical

Sequence of isolated ATM kinase (Q13315 whole entry): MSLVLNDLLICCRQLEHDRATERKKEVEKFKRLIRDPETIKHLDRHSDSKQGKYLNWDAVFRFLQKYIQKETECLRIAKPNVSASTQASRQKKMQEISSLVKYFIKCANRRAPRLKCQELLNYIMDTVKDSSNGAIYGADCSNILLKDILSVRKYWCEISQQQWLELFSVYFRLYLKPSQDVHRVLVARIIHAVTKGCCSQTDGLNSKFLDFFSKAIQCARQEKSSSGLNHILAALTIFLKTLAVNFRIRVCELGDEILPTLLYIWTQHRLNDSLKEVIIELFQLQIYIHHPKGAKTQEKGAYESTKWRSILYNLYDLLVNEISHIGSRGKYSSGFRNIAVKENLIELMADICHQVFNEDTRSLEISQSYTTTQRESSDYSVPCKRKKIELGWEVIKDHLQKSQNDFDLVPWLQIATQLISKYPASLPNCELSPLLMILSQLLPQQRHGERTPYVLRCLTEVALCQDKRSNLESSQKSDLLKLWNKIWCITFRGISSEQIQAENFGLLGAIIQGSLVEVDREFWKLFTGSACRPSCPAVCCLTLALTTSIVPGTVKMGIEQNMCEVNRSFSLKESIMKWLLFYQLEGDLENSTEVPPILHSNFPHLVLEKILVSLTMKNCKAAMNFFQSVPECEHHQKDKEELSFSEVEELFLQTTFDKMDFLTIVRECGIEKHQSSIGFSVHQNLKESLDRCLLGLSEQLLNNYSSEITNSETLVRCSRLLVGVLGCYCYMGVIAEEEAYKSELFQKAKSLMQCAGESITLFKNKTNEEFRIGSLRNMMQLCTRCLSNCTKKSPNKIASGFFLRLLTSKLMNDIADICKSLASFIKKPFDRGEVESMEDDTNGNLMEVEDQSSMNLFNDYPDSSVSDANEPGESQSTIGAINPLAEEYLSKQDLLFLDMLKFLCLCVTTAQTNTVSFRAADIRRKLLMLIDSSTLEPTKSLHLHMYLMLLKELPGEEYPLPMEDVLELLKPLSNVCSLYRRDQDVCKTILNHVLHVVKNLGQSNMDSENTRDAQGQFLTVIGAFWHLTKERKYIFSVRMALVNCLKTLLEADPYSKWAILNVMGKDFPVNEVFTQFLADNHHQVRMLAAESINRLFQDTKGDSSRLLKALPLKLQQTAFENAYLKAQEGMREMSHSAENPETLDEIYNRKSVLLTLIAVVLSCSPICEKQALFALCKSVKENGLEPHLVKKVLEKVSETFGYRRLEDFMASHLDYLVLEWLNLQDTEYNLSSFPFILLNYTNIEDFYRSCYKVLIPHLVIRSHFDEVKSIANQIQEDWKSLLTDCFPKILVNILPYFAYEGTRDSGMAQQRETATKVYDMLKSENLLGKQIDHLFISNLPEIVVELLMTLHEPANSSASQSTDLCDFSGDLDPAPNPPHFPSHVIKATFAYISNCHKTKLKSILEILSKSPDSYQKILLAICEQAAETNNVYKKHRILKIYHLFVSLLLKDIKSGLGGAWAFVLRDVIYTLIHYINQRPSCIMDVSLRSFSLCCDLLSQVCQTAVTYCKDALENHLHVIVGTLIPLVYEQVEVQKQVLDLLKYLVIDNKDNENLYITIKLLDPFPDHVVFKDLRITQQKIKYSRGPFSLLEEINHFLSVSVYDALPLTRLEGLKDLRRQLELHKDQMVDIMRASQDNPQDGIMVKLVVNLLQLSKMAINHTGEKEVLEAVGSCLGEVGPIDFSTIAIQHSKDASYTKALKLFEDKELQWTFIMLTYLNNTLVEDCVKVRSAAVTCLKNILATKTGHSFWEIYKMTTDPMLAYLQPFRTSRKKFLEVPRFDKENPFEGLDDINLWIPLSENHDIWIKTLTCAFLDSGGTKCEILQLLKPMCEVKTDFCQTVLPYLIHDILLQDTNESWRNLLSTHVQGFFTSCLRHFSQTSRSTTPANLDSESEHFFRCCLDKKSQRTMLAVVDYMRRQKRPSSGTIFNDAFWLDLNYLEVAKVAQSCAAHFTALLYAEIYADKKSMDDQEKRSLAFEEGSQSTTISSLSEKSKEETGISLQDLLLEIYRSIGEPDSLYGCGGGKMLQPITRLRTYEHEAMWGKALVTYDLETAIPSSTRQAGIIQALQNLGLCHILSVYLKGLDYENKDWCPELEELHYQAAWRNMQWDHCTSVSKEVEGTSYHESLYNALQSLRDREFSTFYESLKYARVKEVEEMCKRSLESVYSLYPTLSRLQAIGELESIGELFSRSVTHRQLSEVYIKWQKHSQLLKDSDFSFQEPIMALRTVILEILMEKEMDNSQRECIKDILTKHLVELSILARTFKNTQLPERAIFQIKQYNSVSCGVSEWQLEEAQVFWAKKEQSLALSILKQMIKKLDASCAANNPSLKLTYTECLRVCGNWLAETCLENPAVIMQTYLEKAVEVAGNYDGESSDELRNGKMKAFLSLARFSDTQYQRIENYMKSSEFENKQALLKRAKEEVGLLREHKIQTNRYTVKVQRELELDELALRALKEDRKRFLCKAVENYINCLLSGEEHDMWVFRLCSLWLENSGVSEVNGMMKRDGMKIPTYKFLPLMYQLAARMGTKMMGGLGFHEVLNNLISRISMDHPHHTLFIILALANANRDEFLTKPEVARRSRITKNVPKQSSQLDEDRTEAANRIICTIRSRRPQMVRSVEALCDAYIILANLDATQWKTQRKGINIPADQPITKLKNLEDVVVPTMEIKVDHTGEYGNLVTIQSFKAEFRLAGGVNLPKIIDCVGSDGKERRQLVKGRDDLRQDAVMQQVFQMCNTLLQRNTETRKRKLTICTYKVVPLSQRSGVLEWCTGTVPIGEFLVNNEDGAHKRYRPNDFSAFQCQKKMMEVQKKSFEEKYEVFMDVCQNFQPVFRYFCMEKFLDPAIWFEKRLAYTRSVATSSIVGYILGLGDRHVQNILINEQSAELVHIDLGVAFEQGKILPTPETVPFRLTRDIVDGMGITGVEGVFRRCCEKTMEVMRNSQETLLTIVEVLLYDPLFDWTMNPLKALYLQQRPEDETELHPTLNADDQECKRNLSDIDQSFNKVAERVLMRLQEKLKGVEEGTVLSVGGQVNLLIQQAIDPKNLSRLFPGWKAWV

Point of comparison: `COCC(=O)Nc1ccc(-n2cnc3ccc(-c4ccc(NC(=O)NCCN(C)C)cc4)cc32)cc1` [TD-339, N-(4-(6-(4-(3-(2-(dimethylamino)ethyl)ureido)phenyl)-1H-benzo[d]imidazol-1-yl)phenyl)-2-methoxyacetamide], IC50 10 nM. Against it:
- COc1cc(-n2cnc3ccc(-c4ccc(NC(=O)NCCN(C)C)cc4)cc32)cc(OC)c1OC [TD-309, 1-(2-(dimethylamino)ethyl)-3-(4-(1-(3,4,5-trimethoxyphenyl)-1H-benzo[d]imidazol-6-yl)phenyl)urea] — 6-fold higher, 60 nM
- COCC(=O)Nc1cccc(-n2cnc3ccc(-c4ccc(NC(=O)NCCN(C)C)cc4)cc32)c1 [TD-344, N-(3-(6-(4-(3-(2-(dimethylamino)ethyl)ureido)phenyl)-1H-benzo[d]imidazol-1-yl)phenyl)-2-methoxyacetamide] — within 1.5-fold, 7 nM
- CN1CCN2C(=O)N(c3ccc(-c4ccc5ncn(-c6cccc(NS(C)(=O)=O)c6)c5c4)cc3)CC2C1 (centres unmarked) [TD-448, N-(3-(6-(4-(7-methyl-3-oxohexahydroimidazo[1,5-a]pyrazin-2(3H)-yl)phenyl)-1H-benzo[d]imidazol-1-yl)phenyl)methanesulfonamide] — 34-fold higher, 343 nM
- CN(C)CCSc1ccc(-c2ccc3ncn(-c4cccc(NS(C)(=O)=O)c4)c3c2)cc1 [TD-472, N-(3-(6-(4-((2-(dimethylamino)ethyl)thio)phenyl)-1H-benzo[d]imidazol-1-yl)phenyl)methanesulfonamide] — 2.3-fold higher, 23 nM
- CN(C)CCNC(=O)Nc1ccc(-c2ccc3ncn(-c4ccc5c(c4)CCCC5)c3c2)cc1 [TD-547, 1-(2-(dimethylamino)ethyl)-3-(4-(1-(5,6,7,8-tetrahydronaphthalen-2-yl)-1H-benzo[d]imidazol-6-yl)phenyl)urea] — 1.6-fold higher, 16 nM

The compounds below were run against ATM (h) (Homo sapiens (Human), UniProt Q13315) (assay: ATM assay at Eurofins KinaseProfiler with adjusted concentration range (IC50^II)). Details: Table 13; assay variant (I or II) not given; read-out: IC50.
Sequence of ATM (h) (Q13315 whole entry): as above
Assay type: biochemical

For `COc1cc2ncn(-c3ccc4c(c3)N(S(C)(=O)=O)CC4)c2cc1-c1ccc(OCCCN(C)C)nc1` [TD-630, 3-((5-(5-methoxy-1-(1-(methylsulfonyl)indolin-6-yl)-1H-benzo[d]imidazol-6-yl)pyridin-2-yl)oxy)-N,N-dimethylpropan-1-amine], the IC50 was 386 nM.

Same assay, conditions: Table 13; read-out: IC50 [nM], IC50^II

Point of comparison: `CN(C)CCc1nc2cc(-c3ccc4ncn(-c5ccc6c(c5)N(S(C)(=O)=O)CC6)c4c3)ccc2[nH]1` [TD-607, N,N-dimethyl-2-(3′-(1-(methylsulfonyl)indolin-6-yl)-1H,3′H-[5,5′-bibenzo[d]imidazol]-2-yl)ethan-1-amine], IC50 2 nM. Against it:
- CS(=O)(=O)N1CCc2ccc(-n3cnc4ccc(-c5ccc(CO)cc5)cc43)cc21 [TD-587, (4-(1-(1-(methylsulfonyl)indolin-6-yl)-1H-benzo[d]imidazol-6-yl)phenyl)methanol] — 53-fold higher, 106 nM
- CN(C)CCCn1cc(-c2ccc3ncn(-c4ccc5c(c4)N(S(C)(=O)=O)CC5)c3n2)cn1 [TD-623, N,N-dimethyl-3-(4-(3-(1-(methylsulfonyl)indolin-6-yl)-3H-imidazo[4,5-b]pyridin-5-yl)-1H-pyrazol-1-yl)propan-1-amine] — 120-fold higher, 237 nM
- COc1cc2ncn(-c3ccc4c(c3)N(S(C)(=O)=O)CC4)c2cc1-c1ccc(NC(=O)NCCN(C)C)cc1 [TD-634, 1-(2-(dimethylamino)ethyl)-3-(4-(5-methoxy-1-(1-(methylsulfonyl)indolin-6-yl)-1H-benzo[d]imidazol-6-yl)phenyl)urea] — 56-fold higher, 113 nM
